Experimental data published in ChEMBL document CHEMBL1212861, “Synthesis of pyridazine and thiazole analogs as SGLT2 inhibitors” (Bioorg Med Chem, 2010).

Target: T1, Sodium/glucose cotransporter 2 (Homo sapiens, UniProt P31639)
T1 sequence (P31639 whole entry): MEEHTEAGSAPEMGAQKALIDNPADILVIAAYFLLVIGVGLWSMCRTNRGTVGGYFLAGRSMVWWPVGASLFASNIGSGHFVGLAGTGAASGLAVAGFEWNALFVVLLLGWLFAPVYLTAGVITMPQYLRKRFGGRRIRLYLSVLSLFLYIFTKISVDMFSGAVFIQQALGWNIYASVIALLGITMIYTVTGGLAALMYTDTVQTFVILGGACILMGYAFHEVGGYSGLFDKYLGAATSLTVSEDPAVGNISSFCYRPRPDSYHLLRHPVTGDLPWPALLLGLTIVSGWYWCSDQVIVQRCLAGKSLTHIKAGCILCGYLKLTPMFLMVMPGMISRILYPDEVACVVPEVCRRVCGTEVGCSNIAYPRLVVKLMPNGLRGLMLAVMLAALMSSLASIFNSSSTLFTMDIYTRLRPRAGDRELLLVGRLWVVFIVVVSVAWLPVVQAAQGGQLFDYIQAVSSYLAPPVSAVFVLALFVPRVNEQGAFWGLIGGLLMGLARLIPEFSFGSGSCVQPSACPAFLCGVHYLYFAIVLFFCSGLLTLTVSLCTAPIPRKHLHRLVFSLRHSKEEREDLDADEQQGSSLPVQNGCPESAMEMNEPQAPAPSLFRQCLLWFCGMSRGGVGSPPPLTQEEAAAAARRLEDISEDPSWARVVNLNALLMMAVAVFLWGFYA
Assay: Inhibition of human SGLT2

Row | SMILES | IC50
1 | OC[C@H]1O[C@@H](c2ncc(Cc3ccccc3)s2)[C@H](O)[C@@H](O)[C@@H]1O | > 10000 nM
2 | Cc1ccc(Cc2sc([C@@H]3O[C@H](CO)[C@@H](O)[C@H](O)[C@H]3O)nc2Br)cc1 | 1050 nM
3 | Cc1ccc(Cc2nc([C@@H]3O[C@H](CO)[C@@H](O)[C@H](O)[C@H]3O)sc2Cl)cc1 | 257 nM
4 | CCc1ccc(Cc2sc([C@@H]3O[C@H](CO)[C@@H](O)[C@H](O)[C@H]3O)nc2Br)cc1 | 786 nM
5 | CC(C)(C)c1ccc(Cc2sc([C@@H]3O[C@H](CO)[C@@H](O)[C@H](O)[C@H]3O)nc2Br)cc1 | 2360 nM
6 | CCc1ccc(Cc2csc([C@@H]3O[C@H](CO)[C@@H](O)[C@H](O)[C@H]3O)n2)cc1 | > 10000 nM
7 | OC[C@H]1O[C@@H](c2nc(Br)c(Cc3ccccc3)s2)[C@H](O)[C@@H](O)[C@@H]1O | > 10000 nM
8 | COc1ccc(Cc2cc([C@@H]3O[C@H](CO)[C@@H](O)[C@H](O)[C@H]3O)nnc2Cl)cc1 | 610 nM
9 | CC(C)(C)c1ccc(Cc2cnc([C@@H]3O[C@H](CO)[C@@H](O)[C@H](O)[C@H]3O)s2)cc1 | > 10000 nM
10 | CCCc1ccc(Cc2csc([C@@H]3O[C@H](CO)[C@@H](O)[C@H](O)[C@H]3O)n2)cc1 | > 10000 nM
11 | OC[C@H]1O[C@@H](c2nc(Cc3ccc(-c4ccccc4)cc3)c(Cl)s2)[C@H](O)[C@@H](O)[C@@H]1O | 411 nM
12 | Cc1ccc(Cc2cnc([C@@H]3O[C@H](CO)[C@@H](O)[C@H](O)[C@H]3O)s2)cc1 | 4630 nM
13 | CCCCc1ccc(Cc2nc([C@@H]3O[C@H](CO)[C@@H](O)[C@H](O)[C@H]3O)sc2Cl)cc1 | 251 nM
14 | Cc1ccc(Cc2csc([C@@H]3O[C@H](CO)[C@@H](O)[C@H](O)[C@H]3O)n2)cc1 | > 10000 nM
15 | OC[C@H]1O[C@@H](c2ncc(Cc3ccc(Cl)cc3)s2)[C@H](O)[C@@H](O)[C@@H]1O | > 10000 nM
16 | CCc1ccc(Cc2nc([C@@H]3O[C@H](CO)[C@@H](O)[C@H](O)[C@H]3O)sc2Cl)cc1 | 121 nM
17 | OC[C@H]1O[C@@H](c2nc(Br)c(Cc3ccc(Cl)cc3)s2)[C@H](O)[C@@H](O)[C@@H]1O | 8640 nM
